According to publication PMC10507085, “Pharmacological inhibition of TBK1/IKKε blunts immunopathology in a murine model of SARS-CoV-2 infection” (Nature Communications, 2023):

Columns and labels:
Assay in all cases: biochemical
Parameters in all cases: KINOMEscan competition binding, DNA-tagged kinase against immobilised ligand, qPCR read-out
Conditions in all cases: read-out: Percent Control
NLK = NLK (Homo sapiens, UniProt Q9UBE8)
KIT-autoinhibited = KIT-autoinhibited (Homo sapiens, UniProt P10721)
ACVR1 = ACVR1 (Homo sapiens, UniProt Q04771)
TGFBR1 = TGFBR1 (Homo sapiens, UniProt P36897)
DMPK = DMPK (Homo sapiens, UniProt Q09013)
STK17B = STK17B (Homo sapiens, UniProt O94768)
RIPK4 = RIPK4 (Homo sapiens, UniProt P57078)
MAP2K6 = MAP2K6 (Homo sapiens, UniProt P52564)
RET = RET (Homo sapiens, UniProt P07949)
PIK3CB = PIK3CB (Homo sapiens, UniProt P42338)
PRKAA2 = PRKAA2 (Homo sapiens, UniProt P54646)
STK3 = STK3 (Homo sapiens, UniProt Q13188)
PIM3 = PIM3 (Homo sapiens, UniProt Q86V86)
CDC42BPB = CDC42BPB (Homo sapiens, UniProt Q9Y5S2)
MAP4K2 = MAP4K2 (Homo sapiens, UniProt Q12851)
MARK4 = MARK4 (Homo sapiens, UniProt Q96L34)
CDKL2 = CDKL2 (Homo sapiens, UniProt Q92772)
BRAF = BRAF (Homo sapiens, UniProt P15056)
AKT1 = AKT1 (Homo sapiens, UniProt P31749)
IGF1R = IGF1R (Homo sapiens, UniProt P08069)

Chain of MAP4K2 (Q12851 whole entry): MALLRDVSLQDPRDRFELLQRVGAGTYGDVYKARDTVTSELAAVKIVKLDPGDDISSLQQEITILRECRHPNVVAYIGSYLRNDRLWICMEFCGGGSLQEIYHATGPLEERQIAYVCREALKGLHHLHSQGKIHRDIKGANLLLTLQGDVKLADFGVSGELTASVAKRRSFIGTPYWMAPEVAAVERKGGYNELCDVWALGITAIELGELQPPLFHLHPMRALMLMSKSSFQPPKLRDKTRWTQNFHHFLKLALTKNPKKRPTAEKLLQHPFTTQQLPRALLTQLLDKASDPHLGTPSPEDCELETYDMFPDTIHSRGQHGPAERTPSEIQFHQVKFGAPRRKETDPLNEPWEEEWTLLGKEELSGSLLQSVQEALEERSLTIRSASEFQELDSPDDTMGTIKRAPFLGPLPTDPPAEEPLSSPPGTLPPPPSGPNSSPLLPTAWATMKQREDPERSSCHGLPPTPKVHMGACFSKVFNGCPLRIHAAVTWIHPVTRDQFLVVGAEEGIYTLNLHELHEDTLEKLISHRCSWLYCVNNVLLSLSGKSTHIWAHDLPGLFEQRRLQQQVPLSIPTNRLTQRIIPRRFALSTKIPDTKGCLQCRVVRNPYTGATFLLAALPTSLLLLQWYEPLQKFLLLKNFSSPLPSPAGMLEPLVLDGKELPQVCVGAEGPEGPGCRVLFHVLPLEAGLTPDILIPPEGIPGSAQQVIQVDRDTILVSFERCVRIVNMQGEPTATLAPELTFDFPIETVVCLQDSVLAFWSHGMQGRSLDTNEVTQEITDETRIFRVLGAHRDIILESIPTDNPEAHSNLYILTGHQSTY
Chain of NLK (Q9UBE8 whole entry): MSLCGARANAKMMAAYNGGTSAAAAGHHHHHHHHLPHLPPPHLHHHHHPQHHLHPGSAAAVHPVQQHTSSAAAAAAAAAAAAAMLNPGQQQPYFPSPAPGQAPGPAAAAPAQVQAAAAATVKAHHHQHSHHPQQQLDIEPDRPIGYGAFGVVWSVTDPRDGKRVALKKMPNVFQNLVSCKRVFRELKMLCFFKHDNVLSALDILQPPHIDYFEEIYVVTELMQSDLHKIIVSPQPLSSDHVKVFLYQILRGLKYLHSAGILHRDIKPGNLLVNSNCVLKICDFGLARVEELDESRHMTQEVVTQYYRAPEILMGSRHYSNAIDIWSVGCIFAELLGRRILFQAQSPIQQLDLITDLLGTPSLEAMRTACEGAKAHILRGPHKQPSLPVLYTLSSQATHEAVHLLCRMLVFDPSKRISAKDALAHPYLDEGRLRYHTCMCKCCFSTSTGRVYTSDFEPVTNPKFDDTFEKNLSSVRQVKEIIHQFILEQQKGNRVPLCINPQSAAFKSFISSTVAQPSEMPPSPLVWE
Chain of TGFBR1 (P36897 whole entry): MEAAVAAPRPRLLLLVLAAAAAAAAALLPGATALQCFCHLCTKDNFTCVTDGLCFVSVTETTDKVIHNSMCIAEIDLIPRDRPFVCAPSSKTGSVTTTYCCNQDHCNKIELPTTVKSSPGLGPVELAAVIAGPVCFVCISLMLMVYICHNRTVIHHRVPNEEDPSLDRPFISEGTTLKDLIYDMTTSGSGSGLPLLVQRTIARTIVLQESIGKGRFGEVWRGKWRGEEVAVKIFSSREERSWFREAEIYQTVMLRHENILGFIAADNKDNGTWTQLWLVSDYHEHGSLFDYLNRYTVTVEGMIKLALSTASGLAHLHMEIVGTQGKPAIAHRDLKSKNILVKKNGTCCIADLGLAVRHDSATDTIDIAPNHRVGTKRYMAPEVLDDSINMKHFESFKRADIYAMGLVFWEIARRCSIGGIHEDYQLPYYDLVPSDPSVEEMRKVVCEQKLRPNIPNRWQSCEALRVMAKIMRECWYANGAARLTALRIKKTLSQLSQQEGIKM
Chain of BRAF (P15056 whole entry): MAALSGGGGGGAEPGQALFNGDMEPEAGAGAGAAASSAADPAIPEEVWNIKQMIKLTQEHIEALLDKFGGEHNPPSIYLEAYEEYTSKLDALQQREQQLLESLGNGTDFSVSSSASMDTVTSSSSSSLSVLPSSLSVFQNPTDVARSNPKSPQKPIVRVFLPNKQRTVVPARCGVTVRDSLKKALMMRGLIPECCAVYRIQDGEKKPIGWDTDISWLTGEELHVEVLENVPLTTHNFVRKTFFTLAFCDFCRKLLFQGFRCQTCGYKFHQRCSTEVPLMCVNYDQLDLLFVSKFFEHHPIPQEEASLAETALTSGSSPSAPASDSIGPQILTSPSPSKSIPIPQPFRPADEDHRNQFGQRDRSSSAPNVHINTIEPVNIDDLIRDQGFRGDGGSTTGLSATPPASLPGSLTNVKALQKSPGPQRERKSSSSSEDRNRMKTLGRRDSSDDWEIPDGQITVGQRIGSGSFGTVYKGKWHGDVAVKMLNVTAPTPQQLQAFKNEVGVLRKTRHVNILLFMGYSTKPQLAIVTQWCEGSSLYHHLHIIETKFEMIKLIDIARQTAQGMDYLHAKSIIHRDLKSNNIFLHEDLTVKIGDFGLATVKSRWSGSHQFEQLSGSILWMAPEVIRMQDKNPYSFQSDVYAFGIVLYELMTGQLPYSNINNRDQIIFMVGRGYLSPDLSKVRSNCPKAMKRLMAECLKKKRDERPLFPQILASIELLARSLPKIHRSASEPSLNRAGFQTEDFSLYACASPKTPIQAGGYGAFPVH
Chain of CDKL2 (Q92772 whole entry): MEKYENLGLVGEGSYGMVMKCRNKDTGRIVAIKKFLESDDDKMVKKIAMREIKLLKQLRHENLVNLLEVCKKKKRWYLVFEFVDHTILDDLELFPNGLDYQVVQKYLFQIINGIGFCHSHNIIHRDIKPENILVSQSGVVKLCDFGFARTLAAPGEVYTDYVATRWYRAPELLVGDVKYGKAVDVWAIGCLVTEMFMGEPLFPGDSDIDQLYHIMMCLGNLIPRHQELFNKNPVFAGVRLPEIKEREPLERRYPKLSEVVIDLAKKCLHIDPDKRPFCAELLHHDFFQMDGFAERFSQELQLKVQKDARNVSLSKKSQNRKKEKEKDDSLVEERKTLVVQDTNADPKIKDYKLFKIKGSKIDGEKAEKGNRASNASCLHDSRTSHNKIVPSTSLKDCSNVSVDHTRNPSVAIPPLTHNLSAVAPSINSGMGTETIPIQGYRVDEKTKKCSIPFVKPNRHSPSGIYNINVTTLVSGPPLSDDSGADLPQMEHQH
Chain of CDC42BPB (Q9Y5S2 whole entry): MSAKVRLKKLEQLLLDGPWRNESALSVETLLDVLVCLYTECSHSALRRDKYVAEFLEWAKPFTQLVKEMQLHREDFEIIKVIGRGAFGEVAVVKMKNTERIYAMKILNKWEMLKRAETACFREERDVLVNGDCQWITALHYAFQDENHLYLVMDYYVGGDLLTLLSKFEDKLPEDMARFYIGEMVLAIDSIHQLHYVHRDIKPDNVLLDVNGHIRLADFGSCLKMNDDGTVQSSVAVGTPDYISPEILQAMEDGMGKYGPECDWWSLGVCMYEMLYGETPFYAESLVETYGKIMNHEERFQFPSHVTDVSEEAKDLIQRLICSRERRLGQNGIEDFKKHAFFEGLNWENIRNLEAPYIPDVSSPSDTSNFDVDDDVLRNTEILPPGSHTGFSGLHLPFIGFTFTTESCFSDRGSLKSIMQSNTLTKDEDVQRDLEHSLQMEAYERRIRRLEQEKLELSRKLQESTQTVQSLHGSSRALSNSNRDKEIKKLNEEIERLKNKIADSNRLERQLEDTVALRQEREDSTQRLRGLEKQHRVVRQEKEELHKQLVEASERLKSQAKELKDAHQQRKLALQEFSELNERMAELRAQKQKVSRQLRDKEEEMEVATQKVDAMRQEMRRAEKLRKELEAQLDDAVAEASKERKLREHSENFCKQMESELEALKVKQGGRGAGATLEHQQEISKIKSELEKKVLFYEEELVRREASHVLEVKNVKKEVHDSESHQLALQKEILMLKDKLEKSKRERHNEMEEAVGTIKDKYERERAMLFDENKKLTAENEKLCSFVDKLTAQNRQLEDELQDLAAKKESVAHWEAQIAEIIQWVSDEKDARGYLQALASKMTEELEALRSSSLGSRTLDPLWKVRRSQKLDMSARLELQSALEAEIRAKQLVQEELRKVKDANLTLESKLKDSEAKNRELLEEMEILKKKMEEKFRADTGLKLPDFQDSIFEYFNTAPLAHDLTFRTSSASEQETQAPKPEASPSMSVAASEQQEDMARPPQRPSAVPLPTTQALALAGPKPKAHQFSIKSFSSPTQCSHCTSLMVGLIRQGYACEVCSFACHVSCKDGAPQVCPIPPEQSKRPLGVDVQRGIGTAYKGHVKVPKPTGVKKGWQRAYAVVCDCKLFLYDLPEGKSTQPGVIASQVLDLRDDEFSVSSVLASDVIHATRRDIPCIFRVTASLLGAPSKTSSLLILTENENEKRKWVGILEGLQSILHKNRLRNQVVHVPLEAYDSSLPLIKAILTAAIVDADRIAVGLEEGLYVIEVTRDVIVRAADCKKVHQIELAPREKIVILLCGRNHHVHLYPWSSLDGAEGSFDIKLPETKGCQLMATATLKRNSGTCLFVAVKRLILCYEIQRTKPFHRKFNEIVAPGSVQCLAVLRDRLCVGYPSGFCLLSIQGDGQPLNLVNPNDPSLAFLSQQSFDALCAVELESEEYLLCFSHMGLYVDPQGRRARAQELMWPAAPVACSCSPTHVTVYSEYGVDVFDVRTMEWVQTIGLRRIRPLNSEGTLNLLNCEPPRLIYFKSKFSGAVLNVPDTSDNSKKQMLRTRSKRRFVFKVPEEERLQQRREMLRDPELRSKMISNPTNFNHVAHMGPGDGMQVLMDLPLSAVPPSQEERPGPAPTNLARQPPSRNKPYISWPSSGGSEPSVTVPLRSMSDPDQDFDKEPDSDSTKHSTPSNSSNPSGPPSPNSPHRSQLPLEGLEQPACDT

SMILES: Oc1ccc(C2=Cc3ccc(O)cc3OC2)cc1 [compound 1, idronoxil]
- remaining binding at 10 µM (NLK): 67%
- remaining binding at 10 µM (KIT-autoinhibited): 60%
- remaining binding at 10 µM (ACVR1): 74%
- remaining binding at 10 µM (TGFBR1): 78%
- remaining binding at 10 µM (DMPK): 92%
- remaining binding at 10 µM (STK17B): 40%
- remaining binding at 10 µM (RIPK4): 73%
- remaining binding at 10 µM (MAP2K6): 85%
- remaining binding at 10 µM (RET): 96%
- remaining binding at 10 µM (PIK3CB): 98%
- remaining binding at 10 µM (PRKAA2): 84%
- remaining binding at 10 µM (STK3): 93%
- remaining binding at 10 µM (PIM3): 40%
- remaining binding at 10 µM (CDC42BPB): 88%
- remaining binding at 10 µM (MAP4K2): 26%
- remaining binding at 10 µM (MARK4): 97%
- remaining binding at 10 µM (CDKL2): 100%
- remaining binding at 10 µM (BRAF): 76%
- remaining binding at 10 µM (AKT1): 75%
- remaining binding at 10 µM (IGF1R): 84%
